What all share (assay): Bliss excess, mean over the matrix (fraction); higher = more synergy
The subject of assay [1] is OPM-2 (Plasma Cell Myeloma). In short, it runs like this: (§1)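 Cell lines grown in DMEM/F12 or RPMI with 10% FBS were plated in 1536-well plates and held 24 hours at 37°C, 5% CO2 before 72 hours of exposure to two-drug dose matrices, with DMSO typically at 0.2%. CellTiter-Glo 2.0 luminescence gave viability, which was converted to inhibition. Vehicle wells were set to 0 and blank wells to 1. Combination Emax is the second-highest inhibition in the matrix, and Bliss excess is the observed combination effect minus the expected EA + EB − EA·EB, where EA and EB are the single-agent effects.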

In assay [2] the test system is L-1236 (Hodgkin's Lymphoma). Summed up: as §1
The subject of assay [3] is VAL (B-Cell Non-Hodgkin's Lymphoma). In short, it runs like this:
as §1

In assay [4] the test system is OVMIU (Ovarian Carcinoma). Summed up:
as §1

Assay [5] has as its system PSN1 (Pancreatic Carcinoma). Summed up:
as §1

Another assay relates to SF268 (Low Grade Glioma). Summed up:
as §1

The subject of assay [6] is RERF-GC-1B (Gastric Carcinoma). Summed up:
as §1

The test system of assay [7] is OAW-42 (Ovarian Carcinoma). In short, it runs like this: as §1
Assay [8] concerns FADU (Head and Neck Carcinoma). In short, it runs like this:
as §1

Assay [9] relates to SK-PN-DW (Other Solid Carcinomas). Summed up:
as §1

In the next assay the test system is LN-229 (Glioblastoma). In short, it runs like this: as §1
In the next assay the test system is GB-1 (Glioblastoma). Summed up:
as §1

The subject of assay [10] is TE-8 (Esophageal Squamous Cell Carcinoma). Summed up: as §1
Assay [11] concerns MFE-280 (Endometrial Carcinoma). Summed up:
as §1

Assay [12] relates to NCI-H446 (Small Cell Lung Carcinoma). Summed up: as §1
Assay [13] relates to LB996-RCC (Kidney Carcinoma). Summed up:
as §1

The subject of another assay is WM278 (Melanoma). Summed up: as §1
The test system of assay [14] is COLO-680N (Esophageal Squamous Cell Carcinoma). In short, it runs like this: as §1
The test system of assay [15] is LK-2 (Squamous Cell Lung Carcinoma). Summed up:
as §1

The subject of assay [16] is SHP-77 (Small Cell Lung Carcinoma). Summed up: as §1

Turning to `CC1(C)CCC(CN2CCN(c3ccc(C(=O)NS(=O)(=O)c4ccc(NCC5CCOCC5)c([N+](=O)[O-])c4)c(Oc4cnc5[nH]ccc5c4)c3)CC2)=C(c2ccc(Cl)cc2)C1` [Venetoclax] + C1CN(CCC1(C(=O)N[C@@H](CCO)C2=CC=C(C=C2)Cl)N)C3=NC=NC4=C3C=CN4 [Capivasertib] (first compound max 1 µM, 7x7, partner max 3 µM), the Bliss excess in assay [1] was 0.0534; in assay [2], -0.0739; in [3], 0.0301; in assay [4], -0.112; in assay [5] it was -0.0707; in the assay on SF268 (Low Grade Glioma) it was -0.0095. Moreover, the Bliss excess in assay [6] is -0.0297; in [7], -0.0539; in assay [8] it was -0.0382; in assay [9], -0.0892; in the assay with LN-229 (Glioblastoma) it was -0.0394; in the assay with GB-1 (Glioblastoma) it was -0.0038. The Bliss excess in assay [10] is -0.0569; in [11], -0.0377; in assay [12] it was -0.0257; in [13], -0.0573; with WM278 (Melanoma) it was -0.0699; in assay [14], -0.0482. The Bliss excess in assay [15] was -0.0122; in [16], -0.0797.

On to `CC1(C)CCC(CN2CCN(c3ccc(C(=O)NS(=O)(=O)c4ccc(NCC5CCOCC5)c([N+](=O)[O-])c4)c(Oc4cnc5[nH]ccc5c4)c3)CC2)=C(c2ccc(Cl)cc2)C1` [Venetoclax] + C=CCn1c(=O)c2cnc(Nc3ccc(N4CCN(C)CC4)cc3)nc2n1-c1cccc(C(C)(C)O)n1 [AZD1775] (first compound max 1 µM, partner max 1 µM), for which the Bliss excess in assay [1] is 0.0966; in assay [2] it was 0.0035; in assay [3], 0.0103; in [4], -0.013; in assay [5], -0.0553; in the assay with SF268 (Low Grade Glioma) it was -0.0218. Further, the Bliss excess was -0.112 in assay [6]; -0.0283 in assay [7]; -0.0282 in assay [8]; 0.0457 in assay [9]; -0.0083 with LN-229 (Glioblastoma); 0.0144 in the assay on GB-1 (Glioblastoma). In addition, the Bliss excess in assay [10] is -0.0071; in [11], 0.0767; in [12], -0.029; in [13], -0.0466; in the assay on WM278 (Melanoma), -0.0413; in assay [14], -0.0402. Also, the Bliss excess was found to be 0.012 in [15] and 0.0141 in assay [16].

For the compound `CC1(C)CCC(CN2CCN(c3ccc(C(=O)NS(=O)(=O)c4ccc(NCC5CCOCC5)c([N+](=O)[O-])c4)c(Oc4cnc5[nH]ccc5c4)c3)CC2)=C(c2ccc(Cl)cc2)C1` [Venetoclax] + CCN(CCO)CCCOc1ccc2c(Nc3cc(CC(=O)Nc4cccc(F)c4)[nH]n3)ncnc2c1 [AZD2811] (first compound max 1 µM, 7x7, partner max 1 µM), the Bliss excess in [1] was 0.085; in assay [2], -0.0197; in assay [3] it was 0.0158; in [4], -0.0851; in [5], -0.0478; in the assay with SF268 (Low Grade Glioma) it was 0.0342. Moreover, the Bliss excess is 0.0028 in [6]; -0.0059 in assay [7]; 0.0341 in [8]; -0.0703 in [9]; -0.014 in the assay with LN-229 (Glioblastoma); -0.0501 in the assay with GB-1 (Glioblastoma). Further, the Bliss excess is 0.0482 in assay [10]; 0.0557 in assay [11]; -0.0077 in [12]; -0.0133 in [13]; -0.0119 in the assay with WM278 (Melanoma); -0.0166 in assay [14]. Further, the Bliss excess in assay [15] amounted to 0.0197; in assay [16], 0.0432.

Consider `CC1(C)CCC(CN2CCN(c3ccc(C(=O)NS(=O)(=O)c4ccc(NCC5CCOCC5)c([N+](=O)[O-])c4)c(Oc4cnc5[nH]ccc5c4)c3)CC2)=C(c2ccc(Cl)cc2)C1` [Venetoclax] + CN(C)CCCOc1ccc(-c2ccc3ncc4c(c3c2)n(C2CCOCC2)c(=O)n4C)cn1 [AZD0156] (first compound max 1 µM, 7x7, partner max 1 µM), for which the Bliss excess was 0.0271 in assay [1]; -0.0182 in [2]; 0.0308 in assay [3]; -0.111 in assay [4]; -0.0421 in [5]; 0.0022 with SF268 (Low Grade Glioma). The Bliss excess in assay [6] was -0.0356; in assay [7], -0.0402; in assay [8], 0.0088; in assay [9] it was -0.0437; with LN-229 (Glioblastoma), -0.007; in the assay with GB-1 (Glioblastoma) it was -0.0206. The Bliss excess in assay [10] is -0.0574; in assay [11] it was 0.0338; in [12] it was 0.0143; in assay [13], -0.0398; in the assay on WM278 (Melanoma) it was -0.0496; in [14], -0.014. Also, the Bliss excess in [15] turned out to be 0.02; in assay [16] it was 0.0254.

With `CC1(C)CCC(CN2CCN(c3ccc(C(=O)NS(=O)(=O)c4ccc(NCC5CCOCC5)c([N+](=O)[O-])c4)c(Oc4cnc5[nH]ccc5c4)c3)CC2)=C(c2ccc(Cl)cc2)C1` [Venetoclax] + COc1cc(Nc2ncc3c(n2)-c2ccc(Cl)cc2C(c2c(F)cccc2OC)=NC3)ccc1C(=O)O [Alisertib] (first compound max 1 µM, 7x7, partner max 10 µM), the Bliss excess in assay [1] is 0.272; in [2], -0.05; in assay [3], 0.0174; in assay [4], -0.151; in assay [5], -0.0219; in the assay with SF268 (Low Grade Glioma), 0.0151. The Bliss excess in assay [6] is -0.0274; in assay [7], -0.079; in [8] it was 0.0252; in assay [9] it was -0.127; in the assay on LN-229 (Glioblastoma), -0.041; with GB-1 (Glioblastoma), -0.03. Further, the Bliss excess in [10] was 0.0171; in [11], -0.0266; in assay [12], -0.0775; in assay [13] it was -0.0096; with WM278 (Melanoma), 0.0416; in assay [14] it was -0.0427. The Bliss excess in assay [15] was -0.035; in assay [16], 0.241.

With `CC1(C)CCC(CN2CCN(c3ccc(C(=O)NS(=O)(=O)c4ccc(NCC5CCOCC5)c([N+](=O)[O-])c4)c(Oc4cnc5[nH]ccc5c4)c3)CC2)=C(c2ccc(Cl)cc2)C1` [Venetoclax] + C[C@@H]1COCCN1C2=NC(=NC(=C2)C3(CC3)[S@](=N)(=O)C)C4=C5C=CNC5=NC=C4 [AZD6738] (first compound max 1 µM, 7x7, partner max 10 µM), the Bliss excess in [1] was -0.0462; in [2] it was -0.019; in assay [3] it was 0.004; in [4], -0.111; in [5] it was -0.0848; with SF268 (Low Grade Glioma) it was -0.0723. Further, the Bliss excess was -0.0579 in assay [6]; -0.016 in assay [7]; 0.0467 in assay [8]; -0.0045 in assay [9]; -0.0601 with LN-229 (Glioblastoma); -0.0281 in the assay with GB-1 (Glioblastoma). The Bliss excess is -0.0603 in assay [10]; -0.0486 in assay [11]; -0.0536 in assay [12]; -0.066 in assay [13]; -0.0712 in the assay on WM278 (Melanoma); -0.0004 in assay [14]. For the same compound, the figures for the Bliss excess in assay [15] and in assay [16] were -0.0205 and -0.007, respectively.

Source of the values: the supplement of paper PMC11061612.
